According to patent US20030022158A1, “Peptides from the TT virus sequence and monospecific antibodies binding to the TT virus” (priority 1999, published 2003):

Tests used:
[1] = tested on: human IgG antibodies in human serum samples; assay: EIA of human antibody reactivities to overlapping synthetic peptides of TTV ORF1 and ORF2 (Tables 2 and 3); type: binding; details: for optical density (OD) at 405 nm: serum diluted 1:100, OD over 0.500 considered positive; for human reactivity to peptide (reactive peptides within ORF1): tested human sera, EIA
Text: Overlapping peptides (18 amino acids in length containing an 8 amino acid overlap) corresponding to regions of the ORFI and ORF2 of TTV (TABLE 1; Genebank accession no AB008394) were produced by a multiple peptide synthesizer (Syro, Syntex, Germany) using standard Fmoc chemistry (Sallberg et al., Immunology Letters, 30:59 68 (1991), herein expressly incorporated by reference in its entirety).
(§1) The EIAs used to identify which peptides interacted with human sera followed protocols known in the art. (See Zhang et al., J Gen Virol, 78:2735-2746 (1997), herein expressly incorporated by reference in its entirety). Briefly, microplates (Nunc, Denmark) were coated for 48 hours with synthetic peptides at a concentration of 10 μg/ml in 0.05M sodium carbonate buffer pH 9.6. After blocking for 2 hours at room temperature with phosphate buffered saline containing 1% bovine serum albumin, 2% goat serum and 0.05% Tween 20 (dilution buffer) the plates were incubated with human sera diluted 1:100 in dilution buffer. Bound human IgG was detected by incubation with anti-human IgG antibodies conjugated to alkaline phosphatase (Sigma Chemicals, St. Louis, Mo.). The plates were developed by the addition of […] (Sigma) and the optical densities were determined at 405 nm.

[2] = tested on: human antibodies in human serum samples; assay: EIA reactivities of three human serum samples with deletion and alanine substitution analogues of SEQ ID NO: 1 (Table 6); type: binding; details: positive = more than 50% of the reactivity of the original peptide
Description: as §1
The reactivity to the TATTTTYAYPGTNRPPV (SEQ ID NO: 1) peptide was further characterized by mapping the reactivity of deletion and substitution peptide analogues.

[3] = human serum sample 1, negative for TTV DNA by PCR
[4] = human serum sample 2, negative for TTV DNA by PCR
[5] = human serum sample 3, negative for TTV DNA by PCR
[6] = human serum sample 4, negative for TTV DNA by PCR
[7] = human serum sample 5, negative for TTV DNA by PCR
[8] = human serum sample 6, negative for TTV DNA by PCR
[9] = human serum sample 7, negative for TTV DNA by PCR
[10] = human serum sample 9, positive for TTV DNA by PCR
[11] = human serum sample 11, negative for TTV DNA by PCR
[12] = human serum sample 18, positive for TTV DNA by PCR
[13] = human serum sample 36, positive for TTV DNA by PCR
[14] = human serum sample 48, positive for TTV DNA by PCR
[15] = human serum sample 98, positive for TTV DNA by PCR
[16] = human serum sample 110, positive for TTV DNA by PCR
[17] = human serum sample 155, positive for TTV DNA by PCR
[18] = human serum sample 157, positive for TTV DNA by PCR

| Substance | optical density (OD) at 405 nm [1, 3] | optical density (OD) at 405 nm [1, 4] | optical density (OD) at 405 nm [1, 5] | optical density (OD) at 405 nm [1, 6] | optical density (OD) at 405 nm [1, 7] | optical density (OD) at 405 nm [1, 8] | optical density (OD) at 405 nm [1, 9] | optical density (OD) at 405 nm [1, 10] | optical density (OD) at 405 nm [1, 11] | optical density (OD) at 405 nm [1, 12] | optical density (OD) at 405 nm [1, 13] | optical density (OD) at 405 nm [1, 14] | optical density (OD) at 405 nm [1, 15] | optical density (OD) at 405 nm [1, 16] | optical density (OD) at 405 nm [1, 17] | optical density (OD) at 405 nm [1, 18] | OD at 405 nm, reactivity of human serum sample P4 [2] | OD at 405 nm, reactivity of human serum sample P7 [2] | OD at 405 nm, reactivity of human serum sample P36 [2] | human reactivity to peptide (reactive peptides within ORF1) [1] | also measured |
| --- | --- | --- | --- | --- | --- | --- | --- | --- | --- | --- | --- | --- | --- | --- | --- | --- | --- | --- | --- | --- | --- |
| peptide 1: overlapping synthetic peptide of TTV ORF1 (TATTTTYAYPGTNRPPV) | 0.00 OD | 0.00 OD | 0.00 OD | 0.00 OD | 0.00 OD | 0.00 OD | 0.00 OD | 0.00 OD | 0.00 OD | 0.00 OD | 0.00 OD | 0.00 OD | 0.00 OD | 0.00 OD | 0.00 OD | 0.00 OD | 0.839 OD | 1.845 OD | 0.825 OD | – | optical density (OD) at 405 nm, EIA reactivity of human serum sample 1 ([1]; serum sample 1, negative for TTV DNA by PCR, serum 1:100, peptide coated 10 μg/ml, OD over 0.500 positive): 0.09 OD; optical density (OD) at 405 nm, EIA reactivity of human serum sample 2 ([1]; serum sample 2, negative for TTV DNA by PCR, serum 1:100, peptide coated 10 μg/ml, OD over 0.500 positive): 0.10 OD; optical density (OD) at 405 nm, EIA reactivity of human serum sample 3 ([1]; serum sample 3, negative for TTV DNA by PCR, serum 1:100, peptide coated 10 μg/ml, OD over 0.500 positive): 0.13 OD; optical density (OD) at 405 nm, EIA reactivity of human serum sample 4 ([1]; serum sample 4, negative for TTV DNA by PCR, serum 1:100, peptide coated 10 μg/ml, OD over 0.500 positive): 0.11 OD; optical density (OD) at 405 nm, EIA reactivity of human serum sample 5 ([1]; serum sample 5, negative for TTV DNA by PCR, serum 1:100, peptide coated 10 μg/ml, OD over 0.500 positive): 0.10 OD; optical density (OD) at 405 nm, EIA reactivity of human serum sample 6 ([1]; serum sample 6, negative for TTV DNA by PCR, serum 1:100, peptide coated 10 μg/ml, OD over 0.500 positive): 0.16 OD; optical density (OD) at 405 nm, EIA reactivity of human serum sample 7 ([1]; serum sample 7, negative for TTV DNA by PCR, serum 1:100, peptide coated 10 μg/ml, OD over 0.500 positive): 0.09 OD; optical density (OD) at 405 nm, EIA reactivity of human serum sample 9 ([1]; serum sample 9, positive for TTV DNA by PCR, serum 1:100, peptide coated 10 μg/ml, OD over 0.500 positive): 0.08 OD; optical density (OD) at 405 nm, EIA reactivity of human serum sample 11 ([1]; serum sample 11, negative for TTV DNA by PCR, serum 1:100, peptide coated 10 μg/ml, OD over 0.500 positive): 0.12 OD; optical density (OD) at 405 nm, EIA reactivity of human serum sample 18 ([1]; serum sample 18, positive for TTV DNA by PCR, serum 1:100, peptide coated 10 μg/ml, OD over 0.500 positive): 0.08 OD; optical density (OD) at 405 nm, EIA reactivity of human serum sample 36 ([1]; serum sample 36, positive for TTV DNA by PCR, serum 1:100, peptide coated 10 μg/ml, OD over 0.500 positive): 0.09 OD; optical density (OD) at 405 nm, EIA reactivity of human serum sample 48 ([1]; serum sample 48, positive for TTV DNA by PCR, serum 1:100, peptide coated 10 μg/ml, OD over 0.500 positive): 0.08 OD; optical density (OD) at 405 nm, EIA reactivity of human serum sample 98 ([1]; serum sample 98, positive for TTV DNA by PCR, serum 1:100, peptide coated 10 μg/ml, OD over 0.500 positive): 0.08 OD; optical density (OD) at 405 nm, EIA reactivity of human serum sample 110 ([1]; serum sample 110, positive for TTV DNA by PCR, serum 1:100, peptide coated 10 μg/ml, OD over 0.500 positive): 0.08 OD; optical density (OD) at 405 nm, EIA reactivity of human serum sample 155 ([1]; serum sample 155, positive for TTV DNA by PCR, serum 1:100, peptide coated 10 μg/ml, OD over 0.500 positive): 0.14 OD; optical density (OD) at 405 nm, EIA reactivity of human serum sample 157 ([1]; serum sample 157, positive for TTV DNA by PCR, serum 1:100, peptide coated 10 μg/ml, OD over 0.500 positive): 0.14 OD |
| 22: overlapping synthetic peptide of TTV ORF1 (TATTTTYAYPGTNR) [compound 22] | 0.07 OD | 0.07 OD | 0.07 OD | 0.08 OD | 0.08 OD | 0.09 OD | 0.09 OD | 0.08 OD | 0.11 OD | 0.07 OD | 0.08 OD | 0.10 OD | 0.04 OD | 0.07 OD | 0.11 OD | 0.11 OD | 0.092 OD | 0.103 OD | 0.078 OD | – | – |
| DQNIHMNARLLIRSPFT (Peptide Immunogen) [compound 50, overlapping synthetic peptide of TTV ORF1] | 0.07 OD | 0.09 OD | 0.08 OD | 0.09 OD | 0.08 OD | 0.86 OD | 0.29 OD | 0.08 OD | 0.18 OD | 0.07 OD | 0.07 OD | 0.07 OD | 0.10 OD | 0.20 OD | 0.63 OD | 0.46 OD | 0.836 OD | 1.769 OD | 0.850 OD | Reactive | – |
| GLYSSIWLSPGRSYFET (Peptide Immunogen) [compound 42, overlapping synthetic peptide of TTV ORF1] | 0.08 OD | 0.11 OD | 0.09 OD | 0.10 OD | 0.17 OD | 0.23 OD | 0.11 OD | 0.27 OD | 0.19 OD | 0.12 OD | 0.10 OD | 0.09 OD | 0.16 OD | 0.42 OD | 0.35 OD | 1.24 OD | 0.135 OD | 0.242 OD | 0.076 OD | Reactive | – |
